This is an account of results in patent EP0700399B1, “36-DERIVATIVES OF RIFAMYCINS AND THEIR USE AS ANTIMICROBIAL AGENTS” (GRUPPO LEPETIT S.P.A., priority 1993, dated 1994).

Read-outs that look alike come from different tables or passages of the source.

Experiment [1] relates to Haemoph. influenzae ATCC 19418. The experiment in a line: MIC by broth microdilution. It is filed as cell-based, Haemophilus influenzae. To be noted: internal code L970, 5% carbon dioxide, 48 hours; for MIC: Haemophilus influenzae, ATCC19418, read-out: MIC of the compounds.
A further experiment relates to Staph. aureus rifa-r^(1). The experiment in a line: MIC by broth microdilution. It is filed as cell-based. Conditions: for MIC: Staphylococcus aureus, read-out: MIC of the compounds.
A further experiment has as its system Staphylococcus aureus. Nature of the experiment: MIC by broth microdilution. It is filed as cell-based. Conditions: internal code L165; for MIC: Staphylococcus aureus, read-out: MIC of the compounds. A general note: In broth dilution the organism is exposed to a series of concentrations in liquid medium.
Experiment [2] has as its system Bacteroides fragilis ATCC 23745. Nature of the experiment: MIC by broth microdilution. Conditions: internal code L1010, anaerobic, 48 hours. The format is cell-based.
The test system of experiment [3] is Enterococc. faecalis ATCC 7080. Nature of the experiment: MIC by broth microdilution. The format is cell-based, Enterococcus faecalis. Conditions: internal code L149; for MIC: Enterococcus faecalis, ATCC7080, read-out: MIC of the compounds.
Experiment [4] deals with Proteus vulgaris ATCC 881. The experiment in a line: MIC by broth microdilution. It is filed as cell-based. To be noted: internal code L79; for MIC: Proteus vulgaris, ATCC881, read-out: MIC of the compounds.
A further experiment has as its system Neisseria gonorrhoeae. Nature of the experiment: MIC by broth microdilution. The format is cell-based. Conditions: internal code L997, 5% carbon dioxide, 48 hours; for MIC: Neisseria gonorrhoeae, read-out: MIC of the compounds.
The subject of another experiment is Streptococcus pyogenes. Nature of the experiment: MIC by broth microdilution. The format is cell-based. To be noted: internal code L49; for MIC: Streptococcus pyogenes, read-out: MIC of the compounds.
Experiment [5] deals with Staphylococcus aureus Smith (Int. code L 819). The experiment in a line: Experimental septicemia in mice. The format is in vivo. To be noted: treated once immediately after infection, survival on the 7th day; for ED50: Staphylococcus aureus, 168 h. The method, then:
Some compounds of the invention were also tested in experimental septicemia in mice infected with Staphylococcus aureus Smith (Int. code L 819). For this purpose, groups of five mice were infected intraperitoneally with about 1 x 10^6 CFU of S. aureus Smith suspended in 0.5 ml of Difco bacteriological mucin. Untreated animals died within 48 hours. The other animals were treated once immediately after infection. On the 7th day the value of ED50 (expressed in mg/kg) was calculated by the method of Spearman-[…]., Statistical method in biological assay, page 254, C. Griffin Ltd., London, 1952), on the basis of the percentage of animals surviving at each dose.

Experiment [6] has as its system Staph. haemolyticus rifa-r^(2). Nature of the experiment: MIC by broth microdilution. It is filed as cell-based. To be noted: for MIC: Staphylococcus haemolyticus, read-out: MIC of the compounds.
The next experiment concerns Staph. aureus rifa-r^(2). The experiment in a line: MIC by broth microdilution. It is filed as cell-based. Conditions: for MIC: Staphylococcus aureus, read-out: MIC of the compounds.
The next experiment relates to Strept. pneumoniae. The experiment in a line: MIC by broth microdilution. Conditions: internal code L44; for MIC: Streptococcus pneumoniae, read-out: MIC of the compounds. It is filed as cell-based.
Experiment [7] deals with Pseudomonas aerug. ATCC10145. Nature of the experiment: MIC by broth microdilution. It is filed as cell-based, Pseudomonas aeruginosa. Conditions: internal code L4; for MIC: Pseudomonas, ATCC10145, read-out: MIC of the compounds.
A further experiment relates to Escherichia coli. The experiment in a line: MIC by broth microdilution. It is filed as cell-based. Conditions: internal code L47; for MIC: Escherichia coli, read-out: MIC of the compounds.
Experiment [8] relates to Staph. epidermidis ATCC 12228. Nature of the experiment: MIC by broth microdilution. It is filed as cell-based. To be noted: internal code L147; for MIC: Staphylococcus epidermidis, ATCC12228, read-out: MIC of the compounds.
The next experiment concerns Staph. aureus Smith. Nature of the experiment: MIC by broth microdilution. The format is cell-based. To be noted: internal code L819; for MIC: Staphylococcus aureus, read-out: MIC of the compounds.
Experiment [9] deals with Bacteroides fragilis ATCC 25285. The experiment in a line: MIC by broth microdilution. It is filed as cell-based. Conditions: Bacteroides fragilis, ATCC25285; internal code L1011; anaerobic, 48 hours; read-out: MIC of the compounds.
Experiment [10] concerns Esch. coli K12 hyperpermeable. The experiment in a line: MIC by broth microdilution. It is filed as cell-based, Escherichia coli. To be noted: Escherichia coli, read-out: MIC of the compounds.
The subject of another experiment is Clostridium perfringens. The experiment in a line: microbe, parasite or virus in culture. The format is cell-based. Conditions: read-out: MIC of the compounds.
In the next experiment the test system is Klebsiella pneumoniae. Nature of the experiment: MIC by broth microdilution. The format is cell-based. To be noted: internal code L142, read-out: MIC of the compounds.
Experiment [11] has as its system Propionibact. acnes ATCC 6919. Nature of the experiment: MIC by broth microdilution. It is filed as cell-based, Propionibacterium acnes. Conditions: Cutibacterium acnes, ATCC6919; internal code L1014; anaerobic, 48 hours; read-out: MIC of the compounds.
Experiment [12] has as its system Moraxella catarr. ATCC 8178. Nature of the experiment: MIC by broth microdilution. The format is cell-based, Moraxella catharralis. To be noted: ATCC8178, internal code L76, read-out: MIC of the compounds.
The subject of experiment [13] is Esch. coli K12 rifa-r^(1). The experiment in a line: MIC by broth microdilution. The format is cell-based, Escherichia coli. To be noted: Escherichia coli, read-out: MIC of the compounds.
The mark [14] stands for this setting: intravenous, read-out: ED50 IV route.
Where [15] appears, read: sc, subcutaneous, read-out: ED50 SC route.

For “36-[(1-Ethyl-6-fluoro-1,4-dihydro-7-(4-methyl-1-piperazinyl)-4-oxo-3-quinolinyl)carbonyloxy]-2'-(diethylamino)rifamycin P [Compound C22]”, the “MIC of the compounds” value in [1] was found to be 0.5 µg/mL; in the experiment on Staph. aureus rifa-r^(1) (internal code L721, rifampicin resistant strain, moderately resistant), 0.13 µg/mL; in the experiment with Staphylococcus aureus, 0.06 µg/mL; in experiment [2], 0.13 µg/mL; in [3] it was 2 µg/mL; in [4] it was 64 µg/mL. In addition, the “MIC of the compounds” value in the experiment with Neisseria gonorrhoeae stood at 0.25 µg/mL; in the experiment on Streptococcus pyogenes it was 0.06 µg/mL; in [6] (internal code L602, rifampicin resistant strain, highly resistant), 0.5 µg/mL; with Staph. aureus rifa-r^(2) (internal code L1282, rifampicin resistant strain, highly resistant), 1 µg/mL; in the experiment on Strept. pneumoniae, 0.06 µg/mL; in [7] it was 32 µg/mL. The “MIC of the compounds” value in the experiment on Escherichia coli is at least 128 µg/mL; in [8] it was 0.06 µg/mL; in the experiment on Staph. aureus Smith, 0.06 µg/mL. Moreover, in experiment [5] (intravenous), the “ED50 IV route” value amounted to 0.7 mg/kg. Moreover, the “ED50 SC route” value in [5] (subcutaneous) was determined as 5.3 mg/kg.

For `CO[C@H]1/C=C/O[C@@]2(C)Oc3c(C)c(O)c4c(c3C2=O)C(=O)C=C(NC(=O)/C(C)=C\C=C\[C@H](C)[C@H](O)[C@@H](C)[C@@H](O)[C@@H](C)[C@H](OC(=O)CBr)[C@@H]1C)C4=O` [Compound C1, 36-Bromorifamycin S], the MIC in [9] stood at 1 µg/mL; in experiment [1] it was 1 µg/mL; in the experiment with Staph. aureus rifa-r^(1), 0.25 µg/mL; in the experiment on Staphylococcus aureus, 0.004 µg/mL; in experiment [3] it was 1 µg/mL; in [4], 16 µg/mL. In addition, the MIC with Neisseria gonorrhoeae worked out at 1 µg/mL; in the experiment with Streptococcus pyogenes, 0.03 µg/mL; in [10] it was 0.25 µg/mL; in experiment [6], 32 µg/mL; in the experiment with Staph. aureus rifa-r^(2), 2 µg/mL; in the experiment on Strept. pneumoniae, 0.03 µg/mL. Besides, the MIC with Clostridium perfringens is 0.0003 µg/mL; in the experiment with Klebsiella pneumoniae, 128 µg/mL; in experiment [7], 32 µg/mL; in the experiment on Escherichia coli, 32 µg/mL; in experiment [11] it was 0.016 µg/mL; in experiment [8], 0.004 µg/mL. Also, the MIC was 0.008 µg/mL in experiment [12] and over 128 µg/mL in experiment [13].

A word on the ED50: it is the dose that gives a 50% effect, or the effect in half of the subjects. In the case of `CCn1cc(C(=O)OCC(=O)O[C@H]2[C@H](C)[C@H](O)[C@H](C)[C@@H](O)[C@@H](C)/C=C/C=C(/C)C(=O)NC3=C(N4CCOCC4)C(=O)c4c(c(O)c(C)c5c4C(=O)[C@@](C)(O/C=C/[C@H](OC)[C@H]2C)O5)C3=O)c(=O)c2cc(F)c(N3CCN(C)CC3)cc21` [Compound C24, 36-{[1-Ethyl-6-fluoro-1,4-dihydro-7-(4-methyl-1-piperazinyl)-4-oxo-3-quinolinyl]carbonyloxy}-3-(4-morpholinyl) rifamycin S], the MIC came out at 0.13 µg/mL in experiment [1]; 0.06 µg/mL in the experiment with Staph. aureus rifa-r^(1); 0.06 µg/mL in the experiment with Staphylococcus aureus; 0.13 µg/mL in experiment [2] (Bacteroides fragilis, ATCC23745, read-out: MIC of the compounds); 0.13 µg/mL in experiment [3]; 16 µg/mL in [4]. In addition, the MIC was determined as 0.06 µg/mL in the experiment with Neisseria gonorrhoeae; 0.06 µg/mL in the experiment with Streptococcus pyogenes; 0.13 µg/mL in [6]; 0.13 µg/mL with Staph. aureus rifa-r^(2); 0.008 µg/mL in the experiment with Strept. pneumoniae; 16 µg/mL in experiment [7]. Moreover, the MIC in the experiment on Escherichia coli was 16 µg/mL; in [11], 0.06 µg/mL; in experiment [8], 0.008 µg/mL; in the experiment with Staph. aureus Smith, 0.06 µg/mL. Besides, the median effective dose (ED50) was 3.8 mg/kg in [5] (setting [14]) and over 50 mg/kg in experiment [5] (setting [15]).

On to `CCn1cc(C(=O)OCC(=O)O[C@H]2[C@H](C)[C@H](O)[C@H](C)[C@@H](O)[C@@H](C)/C=C/C=C(/C)C(=O)Nc3c(C=NN4CCN(C5CCCC5)CC4)c(O)c4c5c(c(C)c(O)c4c3O)O[C@](C)(O/C=C/[C@H](OC)[C@H]2C)C5=O)c(=O)c2cc(F)c(N3CCN(C)CC3)cc21` [Compound C26, 3-[[(4-Cyclopentyl-1-piperazinyl)-imino]methyl}-36-{[1-ethyl-6-fluoro-1,4-dihydro-7-(4-methyl-1-piperazinyl)-4-oxo-3-quinolinyl]carbonyloxy}-rifamycin SV], for which the MIC in [9] turned out to be 1 µg/mL; in experiment [1], 1 µg/mL; with Staph. aureus rifa-r^(1) it was 0.13 µg/mL; with Staphylococcus aureus, 0.06 µg/mL; in [3], 4 µg/mL; in experiment [4], 2 µg/mL. Besides, the MIC in the experiment on Neisseria gonorrhoeae was found to be 0.13 µg/mL; in the experiment with Streptococcus pyogenes, 0.03 µg/mL; in [6], 0.5 µg/mL; with Staph. aureus rifa-r^(2), 2 µg/mL; in the experiment with Strept. pneumoniae it was 0.03 µg/mL; in experiment [7] it was 32 µg/mL. Further, the MIC came out at 2 µg/mL in the experiment on Escherichia coli, 0.13 µg/mL in experiment [11], 0.06 µg/mL in experiment [8] and 0.13 µg/mL with Staph. aureus Smith. Moreover, the ED50 in [5] (setting [14]) came out at 0.95 mg/kg; in [5] (setting [15]) it was 1.6 mg/kg.

With `CCn1cc(C(=O)OCC(=O)O[C@H]2[C@H](C)[C@H](O)[C@H](C)[C@@H](O)[C@@H](C)/C=C/C=C(/C)C(=O)Nc3c(C=NN4CCN(C)CC4)c(O)c4c5c(c(C)c(O)c4c3O)O[C@](C)(O/C=C/[C@H](OC)[C@H]2C)C5=O)c(=O)cc1N1CCN(C)CC1` [Compound C30, 36-{[1-Ethyl-1,4-dihydro-6-(4-methyl-1-piperazinyl)-4-oxo-3-pyridinyl]carbonyloxy]-3-{[(4-methyl-1-piperazinyl)imino]methyl}rifamycin SV], the MIC was 0.06 µg/mL in experiment [9]; 1 µg/mL in experiment [1]; 0.5 µg/mL in the experiment on Staph. aureus rifa-r^(1); 0.016 µg/mL with Staphylococcus aureus; 0.25 µg/mL in [3]; 16 µg/mL in experiment [4]. Moreover, the MIC in the experiment on Neisseria gonorrhoeae was 0.13 µg/mL; in the experiment with Streptococcus pyogenes it was 0.016 µg/mL; in [6], 4 µg/mL; with Staph. aureus rifa-r^(2), 1 µg/mL; in the experiment on Strept. pneumoniae, 0.008 µg/mL; in experiment [7], 32 µg/mL. Also, the MIC was 16 µg/mL in the experiment with Escherichia coli, 0.03 µg/mL in experiment [11], 0.016 µg/mL in experiment [8] and 0.016 µg/mL in the experiment on Staph. aureus Smith. The values for the 50% effective dose (ED50) in experiment [5] (setting [14]) and in [5] (setting [15]) were 0.72 mg/kg and 1.6 mg/kg, respectively.
